From patent publication US20230355674A1, “DONOR T-CELLS WITH KILL SWITCH” (CSL Behring LLC, priority 2020, published 2023)
“Also recorded” adds a separate entry of the source.

Assays:
K562 cells = experiment: Negative selection with MTX, transduced or transfected K562 cells; format: cell-based, human; conditions: 0.3 μM of MTX
Procedure: Transduced or transfected K562 cells (such as those from Example 1) were cultured with or without MTX from day 0 to day 14. The medium was refreshed every 3 to 4 days. GFP was analyzed on a flow machine and the InDel % was analyzed by T7E1 assay. […] On the other hand, the population of cells was steady without MTX. FIG. 14B illustrates that the transfected K562 cells were eliminated under treatment with 0.3 μM of MTX at a faster pace as compared with the HPRT-knockdown population.

CEM cells = experiment: Negative selection with MTX or MPA, transduced or transfected CEM cells; format: cell-based; conditions: 0.3 μM of MTX, day 0 to day 14
Procedure: Transduced or transfected CEM cells (such as those from Example 1) were cultured with or without MTX from day 0 to day 14. The medium was refreshed every 3 to 4 days. GFP was analyzed on flow machine and InDel % was analyzed by T7E1 assay.

[1] = MTX dose response in 6-TG selected CEM cells; format: cell-based; conditions: human, wild type CEM T cell leukemia cells, 0.5 μM MTX, thymidine 16 μM, read-out: viable wild type (WT) cells
Procedure: CEM T cell leukemia cells modified by 8 guide RNAs targeting the HPRT1 gene were cultured for 1 week in the presence of 10 μM 6-TG, replenished with fresh 6-TG every 48-72 hours. Following the selection period and confirmation of HPRT protein reduction, the CEM cells were tested for their sensitivity to a dose range of […], methotrexate (MTX) for 3 days in the presence of thymidine 16 μM (T1895 Sigma).

HPRT1 gene [2] = experiment: ICE scoring (indel, knockout score) of gRNA editing in CEM cells; format: cell-based, human
Source text: The top candidate guide RNAs from Example 21 were screen in Jurkat cell lines (n=1) and validated in CEM cell lines (n=2). For instance, Jurkat cells were electroporated with a ribonucleoprotein (RNP) complex containing guide RNA (e.g. an RNP including a guide RNA having any one of SEQ ID NOS: 40-49) together with the Cas9 and tracrRNA. The methodology and analysis was the same for both Jurkat cell lines and CEM cell lines (see also, FIG. 37). Following electroporation, cell viability was measured at different concentrations of 6-TG (see FIG. 36).
(§1) Indel Percentage—The editing efficiency (percentage of the pool with non-wild type sequence) as determined by comparing the edited trace to the control trace. In the ICE algorithm, potential editing outcomes are proposed and fitted to the observed data using linear regression.
(§2) Knockout Score—Represents the proportion of cells that have either a frameshift or 21+bp indel. This score is a useful measure for those who are interested in understanding how many of the contributing indels are likely to result in a functional Knockout (KO) of the targeted gene.
(§3) CEM T cell leukemia cells were electroporated (1600V, 10 ms pulse width, 3 pulses by using the Neon Transfection system) with ribonucleoprotein (RNP) complexes containing guide RNA (see Example 21) designed in-house and obtained from Integrated DNA Technologies (IDT), together with Cas9 and tracrRNA. Cells confirmed to be transfected with the gRNA via the use of the tracr RNA (24 hours post electroporation) were purified using fluorescence activated cells sorting (FACS) prior to culture for a further 72 hours, followed by assessment of cell survival when challenged with increasing concentrations of 6-thioguanine (6-TG) compared to wild type (unmodified) CEM cells.

HPRT1 gene [3] = experiment: ICE scoring (indel, knockout score) of gRNA editing in primary T cells; format: cell-based; conditions: primary human T cells
Source text: as §1, §2
FIG. 44 illustrates a method of modifying primary T-cells in accordance with one embodiment of the present disclosure. FIGS. 45A-45C illustrate 6-TG dose responses seven days following the modification of the primary T-cells in accordance with the modification methods described herein. In particular, FIGS. 45A and 45B illustrate the targeting of Exon 3 (guide RNA 13) and Exon 8 (guide RNA 21). The references “#9” and “#10” denote T-cell number and UT control (electroporated without RNP). […]
(§4) Peripheral blood mononuclear cells (PBMC) were isolated from Australian Red Cross Blood donor samples (n=2) via density centrifugation. […] By day 7, the original mixed PBMC population was determined to be primarily CD3+ T cells (flow cytometry; data not shown).

[4] = tested on: CEM T cell leukemia cells; experiment: 6-TG dose response of gRNA modified CEM cells 72 hours after electroporation; format: cell-based; conditions: 72 hours culture, 6-TG tested up to 40 μM, vs unmodified
Procedure: as §3

HPRT protein [5] = experiment: Western blot of HPRT protein in gRNA modified CEM cells; format: cell-based, human
Procedure: as §3
Unmodified and modified CEM cells were also used for isolation of protein and detection of the HPRT protein using Western blot (FIG. 39, top panel). […] Actin protein detection (FIG. 39, bottom panel) was used as a protein loading control.
as §3, with “(gRNA; legend)” for “(see Example 21)”, “10 days in the presence” for “a further 72 hours, followed by assessment”, “10 uM 6-TG, replenished” for “cell survival when challenged”, “fresh 6-TG every 48-72 hours.” for “increasing concentrations of 6-thioguanine (6-TG) compared to wild type (unmodified) CEM cells.”
Following the selection period, protein was extracted from each cell and used for western blot-based detection of the HPRT protein. Detection of beta-actin was used as a protein loading control (Actin Antibody (ACTBD11B7): sc-81178. Santa Cruz).

[6] = tested on: CEM T cell leukemia cells; experiment: 6-TG selection and 6-TG challenge of gRNA modified CEM cells (cell viability); format: cell-based; conditions: CEM, 10 μM 6-TG for 1 week, vs wild-type
Procedure: Cells confirmed to be transfected with the gRNA via the use of the tracr RNA (24 hours post electroporation) were purified using fluorescence activated cells sorting (FACS) prior to culture in 10 μM 6-TG for 1 week replenished with fresh 6-TG every 48-72 hours.
After 10 days in the presence of 10 uM 6-TG, replenished with fresh 6-TG every 48-72 hours, each cell line was challenged with increasing concentrations of 6-thioguanine (6-TG) and cell viability was compared to wild type (unmodified) CEM cells (see FIG. 40B).

primary human T cells [7] = experiment: 6-TG resistance of gRNA modified primary human T cells (viability); format: cell-based; conditions: donors #9 and #10, 1 uM 6-TG, day 8 and day 13, vs unmodified
Source text: FIG. 44 illustrates a method of modifying primary T-cells in accordance with one embodiment of the present disclosure. FIGS. 45A-45C illustrate 6-TG dose responses seven days following the modification of the primary T-cells in accordance with the modification methods described herein. In particular, FIGS. 45A and 45B illustrate the targeting of Exon 3 (guide RNA 13) and Exon 8 (guide RNA 21). The references “#9” and “#10” denote T-cell number and UT control (electroporated without RNP). FIG. 45C illustrates unmodified cells from donor #9 and donor #10 tested with increasing concentrations of 6-TG (day 4). It was observed that the […] primary T-cells were very sensitive to low doses of 6-TG. ICE Scores are shown below.
as §4
The cells were then cultured for about 7 and about 12 days in the presence of 1 uM 6-TG, with 6-TG replenished every about 2 to about 3 days. At each of these time points, the cells were assessed for the proportion of viable cells compared to untreated (UT) controls.

HPRT protein [8] = experiment: Western blot of HPRT protein in gRNA modified primary T cells; format: cell-based, human; conditions: 72 hours after electroporation
primary human T cells [9] = experiment: MTX dose response in 6-TG selected primary human T cells; format: cell-based; conditions: primary human T cells after 12 days 1 μM 6-TG, MTX dose range 2 days, thymidine 16 μM
Procedure: Primary human T cells modified using guide RNAs targeting the HPRT1 gene and subsequently placed under selection pressure for 12 days with 1 μM 6-TG, with 6-TG replenished every 2 to 3 days, were subjected to a dose range of MTX in the presence of thymidine 16 μM for 2 days and assessed for cell viability.

Question: Which results are given for CN(Cc1cnc2nc(N)nc(N)c2n1)c1ccc(C(=O)N[C@@H](CCC(=O)O)C(=O)O)cc1 [MTX, methotrexate]?
Answer: GFP population of transduced (HPRT knockdown) K562 cells (K562 cells; day 0 to day 14): decreased; transfected (HPRT knockout) K562 cells (K562 cells; day 0 to day 14, compared with HPRT-knockdown population): eliminated; HPRT knockout population of CEM cells (CEM cells): eliminated at a faster pace; GFP population of transduced (HPRT knockdown) cells (CEM cells; CEM cells): decreased; viability at 3 days, 0.5 µM [1]: 60%

Question: Which “editing (ICE scoring), in words” value (HPRT1 gene [2]) does the source give for “gRNA 21: sgRNA guide and PAM TATCCTACAACAAACTTGTCTGG, HPRT 1 target Exon 8 (listed as DNA, chemistry not given here)” here?
Answer: efficient editing

Question: And the “knockout efficiency (ICE scoring)” value (HPRT1 gene [3])?
Answer: about 1%

Question: And the “resistance to 6-TG challenge (cell survival)” value [4]?
Answer: intermediate resistance

Question: And the “HPRT protein (Western blot)” value (HPRT protein [5]; 72 hours post-electroporation, no 6-TG selection, listed as guide 21)?
Answer: reduced compared to wildtype; also recorded: detectable levels of HPRT protein

Question: And the “HPRT protein (Western blot)” value (HPRT protein [5]; after 10 days of 6-TG selection (10 uM))?
Answer: limited to no detectable levels of HPRT

Question: And the “cell viability under 6-TG selection” value [6]?
Answer: more variable viability

Question: And the “proportion of viable cells under 6-TG” value (primary human T cells [7])?
Answer: increased viability

Question: What about the “HPRT protein (Western blot)” value (HPRT protein [8]) of the same compound?
Answer: residual HPRT protein was observed

Question: What about the “sensitivity to MTX compared to wild-type non-modified cells (UT)” value (primary human T cells [9]) of the same compound?
Answer: increased sensitivity to MTX
